Measurements reported in ChEMBL document CHEMBL3046607, “Synthesis and Herbicidal Activity of New 1-Alkyl-3-aryloxypyrazole-4-carboxamide Derivatives” (J Pestic Sci, 2004).
Calls of active or inactive are those of the source. The calls are words filed in the database; no cut-off is given here.

Legend:
Rotala indica [1] = test: Post-emergence herbicidal activity against Rotala indica assessed as bleaching of stem/leaf parts; format: functional, organism-based
Echinochloa oryzicola [2] = test: Post-emergence herbicidal activity against Echinochloa oryzicola assessed as bleaching of stem/leaf parts; format: functional, organism-based
Rotala indica [3] = test: Pre-emergence herbicidal activity against Rotala indica assessed as bleaching of stem/leaf parts; format: functional, organism-based
Pontederia vaginalis [4] = test: Pre-emergence herbicidal activity against Monochoria vaginalis at 1 0 g a.i/ha measured after 14 days; format: functional, organism-based
Lindernia procumbens [5] = test: Pre-emergence herbicidal activity against Lindernia procumbens at 10 g a.i/ha measured after 14 days; format: functional, organism-based
Echinochloa oryzicola [6] = test: Pre-emergence herbicidal activity against Echinochloa oryzicola at 33 g a.i/ha measured after 14 days; format: functional, organism-based
Rotala indica [7] = test: Pre-emergence herbicidal activity against Rotala indica at 33 g a.i/ha measured after 14 days; format: functional, organism-based
Oryza sativa [8] = test: Phytotoxicity against Oryza sativa cv. Koshihikari (rice) at 33 g a.i/ha measured after 14 days; format: organism-based; settings: in vivo, 336 h
Elatine triandra [9] = test: Pre-emergence herbicidal activity against Elatine triandra assessed as bleaching of stem/leaf parts; format: functional, organism-based
Cyperus difformis [10] = test: Pre-emergence herbicidal activity against Cyperus difformis at 10 g a.i/ha measured after 14 days; format: functional, organism-based
Lindernia procumbens [11] = test: Pre-emergence herbicidal activity against Lindernia procumbens at 33 g a.i/ha measured after 14 days; format: functional, organism-based
Echinochloa oryzicola [12] = test: Pre-emergence herbicidal activity against Echinochloa oryzicola assessed as bleaching of stem/leaf parts; format: functional, organism-based
Ammannia multiflora [13] = test: Pre-emergence herbicidal activity against Ammannia multiflora at 10 g a.i/ha measured after 14 days; format: functional, organism-based
Pontederia vaginalis [14] = test: Post-emergence herbicidal activity against Monochoria vaginalis assessed as bleaching of stem/leaf parts; format: functional, organism-based
Pontederia vaginalis [15] = test: Pre-emergence herbicidal activity against Monochoria vaginalis assessed as bleaching of stem/leaf parts; format: functional, organism-based
Ammannia multiflora [16] = test: Pre-emergence herbicidal activity against Ammannia multiflora assessed as bleaching of stem/leaf parts; format: functional, organism-based
Elatine triandra [17] = test: Pre-emergence herbicidal activity against Elatine triandra at 33 g a.i/ha measured after 14 days; format: functional, organism-based
[18] = tested on: Schoenoplectiella juncoides; test: Pre-emergence herbicidal activity against Schoenoplectiella juncoides assessed as bleaching of stem/leaf parts; format: functional, organism-based
Lindernia procumbens [19] = test: Post-emergence herbicidal activity against Lindernia procumbens assessed as bleaching of stem/leaf parts; format: functional, organism-based; further: test concentration or dose not given here
[20] = tested on: Schoenoplectiella juncoides; test: Post-emergence herbicidal activity against Schoenoplectiella juncoides assessed as bleaching of stem/leaf parts; format: functional, organism-based; further: test concentration or dose not given here
Elatine triandra [21] = test: Post-emergence herbicidal activity against Elatine triandra assessed as bleaching of stem/leaf parts; format: functional, organism-based; further: test concentration or dose not given here
Cyperus difformis [22] = test: Pre-emergence herbicidal activity against Cyperus difformis assessed as bleaching of stem/leaf parts; format: functional, organism-based
Rotala indica [23] = test: Pre-emergence herbicidal activity against Rotala indica at 10 g a.i/ha measured after 14 days; format: functional, organism-based
Cyperus difformis [24] = test: Pre-emergence herbicidal activity against Cyperus difformis at 33 g a.i/ha measured after 14 days; format: functional, organism-based
Pontederia vaginalis [25] = test: Pre-emergence herbicidal activity against Monochoria vaginalis at 33 g a.i/ha measured after 14 days; format: functional, organism-based
Ammannia multiflora [26] = test: Pre-emergence herbicidal activity against Ammannia multiflora at 33 g a.i/ha measured after 14 days; format: functional, organism-based
Ammannia multiflora [27] = test: Post-emergence herbicidal activity against Ammannia multiflora assessed as bleaching of stem/leaf parts; format: functional, organism-based
[28] = tested on: Schoenoplectiella juncoides; test: Pre-emergence herbicidal activity against Schoenoplectiella juncoides at 33 g a.i/ha measured after 14 days; format: functional, organism-based
Echinochloa oryzicola [29] = test: Pre-emergence herbicidal activity against Echinochloa oryzicola at 10 g a.i/ha measured after 14 days; format: functional, organism-based
[30] = tested on: Schoenoplectiella juncoides; test: Pre-emergence herbicidal activity against Schoenoplectiella juncoides at 10 g a.i/ha measured after 14 days; format: functional, organism-based
Lindernia procumbens [31] = test: Pre-emergence herbicidal activity against Lindernia procumbens assessed as bleaching of stem/leaf parts; format: functional, organism-based
Oryza sativa [32] = test: Phytotoxicity against Oryza sativa cv. Koshihikari (rice) at 10 g a.i/ha measured after 14 days; format: organism-based; settings: in vivo, 336 h
Elatine triandra [33] = test: Pre-emergence herbicidal activity against Elatine triandra at 10 g a.i/ha measured after 14 days; format: functional, organism-based
Cyperus difformis [34] = test: Post-emergence herbicidal activity against Cyperus difformis assessed as bleaching of stem/leaf parts; format: functional, organism-based; further: test concentration or dose not given here

Q: How did the Activity (Rotala indica [1]) turn out when `Cn1cc(C(=O)Nc2ccc(F)cc2F)c(Oc2cccc(C(F)(F)F)c2)n1` was run?
A: Active

Q: And the Activity (Echinochloa oryzicola [2])?
A: Active

Q: And the Activity (Rotala indica [3])?
A: Active

Q: What about the Activity (Pontederia vaginalis [4]) of the same molecule?
A: inactive

Q: What about the Activity (Lindernia procumbens [5]) of the same molecule?
A: inactive

Q: What about the Activity (Echinochloa oryzicola [6]) of the same molecule?
A: Active

Q: What about the Activity (Rotala indica [7]) of the same molecule?
A: Active

Q: What about the Activity (Oryza sativa [8]) of the same molecule?
A: Non-toxic

Q: And the Activity (Elatine triandra [9])?
A: Active

Q: What about the Activity (Cyperus difformis [10]) of the same molecule?
A: inactive

Q: What about the Activity (Lindernia procumbens [11]) of the same molecule?
A: Active

Q: And the Activity (Echinochloa oryzicola [12])?
A: Active

Q: And the Activity (Ammannia multiflora [13])?
A: inactive

Q: What about the Activity (Pontederia vaginalis [14]) of the same molecule?
A: Active

Q: And the Activity (Pontederia vaginalis [15])?
A: Active

Q: What about the Activity (Ammannia multiflora [16]) of the same molecule?
A: Active

Q: What about the Activity (Elatine triandra [17]) of the same molecule?
A: Active

Q: What about the Activity [18] of the same molecule?
A: Active

Q: What about the Activity (Lindernia procumbens [19]) of the same molecule?
A: Active

Q: What about the Activity [20] of the same molecule?
A: Active

Q: What about the Activity (Elatine triandra [21]) of the same molecule?
A: Active

Q: And the Activity (Cyperus difformis [22])?
A: Active

Q: What about the Activity (Rotala indica [23]) of the same molecule?
A: inactive

Q: What about the Activity (Cyperus difformis [24]) of the same molecule?
A: Active

Q: What about the Activity (Pontederia vaginalis [25]) of the same molecule?
A: Active

Q: And the Activity (Ammannia multiflora [26])?
A: Active

Q: And the Activity (Ammannia multiflora [27])?
A: Active

Q: And the Activity [28]?
A: Active

Q: And the Activity (Echinochloa oryzicola [29])?
A: inactive

Q: And the Activity [30]?
A: inactive

Q: And the Activity (Lindernia procumbens [31])?
A: Active

Q: What about the Activity (Oryza sativa [32]) of the same molecule?
A: Non-toxic

Q: And the Activity (Elatine triandra [33])?
A: inactive

Q: What about the Activity (Cyperus difformis [34]) of the same molecule?
A: Active

Q: With `Cn1cc(C(=O)Nc2ccc(F)cc2F)c(Oc2ccc(Cl)c(C(F)(F)F)c2)n1` as the molecule, how does the Activity (Rotala indica [1]) read?
A: Active

Q: And the Activity (Echinochloa oryzicola [2])?
A: Active

Q: What about the Activity (Rotala indica [3]) of the same molecule?
A: Active

Q: And the Activity (Pontederia vaginalis [4])?
A: Active

Q: What about the Activity (Lindernia procumbens [5]) of the same molecule?
A: Active

Q: What about the Activity (Echinochloa oryzicola [6]) of the same molecule?
A: Active

Q: And the Activity (Rotala indica [7])?
A: Active

Q: And the Activity (Oryza sativa [8])?
A: Non-toxic

Q: And the Activity (Elatine triandra [9])?
A: Active

Q: And the Activity (Cyperus difformis [10])?
A: Active

Q: What about the Activity (Lindernia procumbens [11]) of the same molecule?
A: Active

Q: What about the Activity (Echinochloa oryzicola [12]) of the same molecule?
A: Active

Q: And the Activity (Ammannia multiflora [13])?
A: Active

Q: What about the Activity (Pontederia vaginalis [14]) of the same molecule?
A: Active

Q: What about the Activity (Pontederia vaginalis [15]) of the same molecule?
A: Active

Q: And the Activity (Ammannia multiflora [16])?
A: Active

Q: What about the Activity (Elatine triandra [17]) of the same molecule?
A: Active

Q: What about the Activity [18] of the same molecule?
A: Active

Q: What about the Activity (Lindernia procumbens [19]) of the same molecule?
A: Active

Q: And the Activity [20]?
A: Active

Q: What about the Activity (Elatine triandra [21]) of the same molecule?
A: Active

Q: And the Activity (Cyperus difformis [22])?
A: Active

Q: And the Activity (Rotala indica [23])?
A: Active

Q: And the Activity (Cyperus difformis [24])?
A: Active

Q: What about the Activity (Pontederia vaginalis [25]) of the same molecule?
A: Active

Q: What about the Activity (Ammannia multiflora [26]) of the same molecule?
A: Active

Q: What about the Activity (Ammannia multiflora [27]) of the same molecule?
A: Active

Q: What about the Activity [28] of the same molecule?
A: Active

Q: What about the Activity (Echinochloa oryzicola [29]) of the same molecule?
A: inactive

Q: And the Activity [30]?
A: Active

Q: What about the Activity (Lindernia procumbens [31]) of the same molecule?
A: Active

Q: What about the Activity (Oryza sativa [32]) of the same molecule?
A: Non-toxic

Q: What about the Activity (Elatine triandra [33]) of the same molecule?
A: Active

Q: And the Activity (Cyperus difformis [34])?
A: Active

Q: With `CCn1cc(C(=O)Nc2ccc(F)cc2F)c(Oc2cccc(C(F)(F)F)c2)n1` as the molecule, how does the Activity (Rotala indica [1]) read?
A: Active

Q: And the Activity (Echinochloa oryzicola [2])?
A: Active

Q: And the Activity (Rotala indica [3])?
A: Active

Q: What about the Activity (Pontederia vaginalis [4]) of the same molecule?
A: Active

Q: And the Activity (Lindernia procumbens [5])?
A: Active

Q: What about the Activity (Echinochloa oryzicola [6]) of the same molecule?
A: Active

Q: What about the Activity (Rotala indica [7]) of the same molecule?
A: Active

Q: What about the Activity (Oryza sativa [8]) of the same molecule?
A: Non-toxic

Q: And the Activity (Elatine triandra [9])?
A: Active

Q: What about the Activity (Cyperus difformis [10]) of the same molecule?
A: Active

Q: What about the Activity (Lindernia procumbens [11]) of the same molecule?
A: Active

Q: What about the Activity (Echinochloa oryzicola [12]) of the same molecule?
A: Active

Q: And the Activity (Ammannia multiflora [13])?
A: Active

Q: And the Activity (Pontederia vaginalis [14])?
A: Active

Q: And the Activity (Pontederia vaginalis [15])?
A: Active

Q: What about the Activity (Ammannia multiflora [16]) of the same molecule?
A: Active

Q: What about the Activity (Elatine triandra [17]) of the same molecule?
A: Active

Q: And the Activity [18]?
A: Active

Q: What about the Activity (Lindernia procumbens [19]) of the same molecule?
A: Active

Q: What about the Activity [20] of the same molecule?
A: Active

Q: And the Activity (Elatine triandra [21])?
A: Active

Q: And the Activity (Cyperus difformis [22])?
A: Active

Q: And the Activity (Rotala indica [23])?
A: Active

Q: What about the Activity (Cyperus difformis [24]) of the same molecule?
A: Active

Q: And the Activity (Pontederia vaginalis [25])?
A: Active

Q: What about the Activity (Ammannia multiflora [26]) of the same molecule?
A: Active

Q: And the Activity (Ammannia multiflora [27])?
A: Active

Q: What about the Activity [28] of the same molecule?
A: Active

Q: What about the Activity (Echinochloa oryzicola [29]) of the same molecule?
A: Active

Q: And the Activity [30]?
A: inactive

Q: And the Activity (Lindernia procumbens [31])?
A: Active

Q: What about the Activity (Oryza sativa [32]) of the same molecule?
A: Non-toxic

Q: What about the Activity (Elatine triandra [33]) of the same molecule?
A: Active

Q: What about the Activity (Cyperus difformis [34]) of the same molecule?
A: Active
